This data set deals with NFE2L2 gene. The experiment in a line: Screening of SureKill guide RNAs in the NFE2L2 gene for ability to induce indels. In kind it is cell-based, Human. To be noted: transfections of individual guide RNAs (spCas9 RNP); NCI-H1703 clone 44-25 cells; DECODR. The method, then: Human lung squamous cell carcinoma NCI-H1703 clone 44-25 cells were derived from NCI-H1703 cells (#CRL-5889) which were purchased from ATCC (Manassas, VA, USA). NCI-H1703 clone 44-25 cells contains R34G mutation (C 4 G) in NFE2L2 gene. H1703 clone 44-25 cells were cultured in ATCC formulation RPMI-1640 with 10% FBS. T75 flasks were used and cells were split 1:5 upon reaching 90% confluency. Human lung adenocarcinoma cells (Dist. Lot. No. LG0703-F948-PDC) were acquired from the National Institute of Health's National Cancer Institute's Patient-Derived Models Repository (PDMR). This PDMR cell line contains the L858R mutation (T 4 G) in the EGFR gene. The PDMR cells were maintained in Advanced DMEM/F12 media containing 10% FBS, 0.4 μg/mL hydrocortisone, 0.01 μg/mL EGF Recombinant Human Protein, 24 μg/mL adenine, and 2 mM L-Glutamine. T75s were used and cells were split 1:3 upon reaching 90% confluency. All cultures were maintained in cell culture incubators at 37° C. and 5% CO2.
Ribonucleoproteins (RNP) are complexed by incubating 250 pmol of purified synthetic gRNA (Synthego Corporation, Redwood City, CA) with 50 pmol of purified spCas9 (Synthego Corporation, Redwood City, CA) at room temperature in nuclease-free 1× TE buffer for 15 minutes.
Transfections were carried out using the Lonza Nuclefector 4d. Cultures in t75s at 90% confluence were split 1:2 24 hours prior to transfection. RNPs were complexed at 250:50 pmol for 30 minutes prior to transfection, during which time cells were harvested and counted. All reactions were 100 μL and contained 1 e6 cells. Lonza SF solution and Nucleofector program CM-130 were used in all transfections of the H1703 cell line. Lonza SE solution and Nucleofector program CA-137 were used in all transfections of the PDMR. After transfection, 500 μL of media that had been equilibrated to cell culture CO2 and temperature conditions was added to each 100 μL cuvettes. Cuvettes were then placed in the incubator. After 20 minutes, the entire content of each cuvette was seeded into 3 mL of media in a 6 well plate. After 72 hours, samples were dissociated using 200 μL Trypsin 0.25% for 5 minutes. 800 μL culture media was used to quench and split into 1.5 mL tubes each containing 500 μL of the sample. Tubes were spun at 300×g for 5 minutes. One of the tubes was placed in the −20° C. freezer and the other was resuspended in 500 μL of Trizol for RNA extraction and cDNA synthesis.
All sequencing was performed on the Applied Biosystems SeqStudio. The BigDye Terminator v3.1 Cycle Sequencing Kit was used to prepare samples for sequencing. Resulting sequences were analyzed with DECODR to determine indel rates (Bloh et al., CRISPR J. 4:120-31 (2021)).
In some cancers, human NRF2 contains a mutation, R34G, that creates a novel PAM site making it a targetable sequence by CRISPR. By combining the R34G-targeting CRISPR with another CRISPR of high efficiency in a downstream intronic region, exon skipping can be induced, resulting in a higher efficiency of functional knockout than the R34G targeting CRISPR alone. To find a suitable SureKill guide RNA (gRNA) to pair with the R34G targeting CRISPR, we selected the intron between exons 3 and 4 (FIG. 2). A series of gRNAs were created in this region and screened for their ability to induce indels, a measure of their activity (Table 2).
In Table 2, all sequences are listed from 5′ to 3′. Indel %, a measure of CRISPR activity, is based on transfections of individual guide RNAs. All guide RNAs, with the exception of R34G, were designed in the intron between exons 3 and 4.

Substance “R34G gRNA: guide RNA GATATAGATCTTGGAGTAAG, SEQ ID NO:1, targets NRF2 R34G mutation (listed as DNA, chemistry not given here)” registered an indel % of 83%.
